# Source: paper PMC12095047, “Transport of phenoxyacetic acid herbicides by PIN-FORMED auxin transporters” (Nature Plants, 2025)
# Where “and” joins values, the source holds several entries; their conditions need not be identical. Equal values may be shown once. Read-outs that look alike come from different tables or passages of the source.
# Columns and labels:
# Format in all cases: biochemical
# [1] = target: T1, PIN8 I51Y (Arabidopsis thaliana, UniProt Q9LFP6, I51Y); settings: Michaelis–Menten fit
# T1 construct: made in house
# T1 sequence (Q9LFP6 whole entry I51Y): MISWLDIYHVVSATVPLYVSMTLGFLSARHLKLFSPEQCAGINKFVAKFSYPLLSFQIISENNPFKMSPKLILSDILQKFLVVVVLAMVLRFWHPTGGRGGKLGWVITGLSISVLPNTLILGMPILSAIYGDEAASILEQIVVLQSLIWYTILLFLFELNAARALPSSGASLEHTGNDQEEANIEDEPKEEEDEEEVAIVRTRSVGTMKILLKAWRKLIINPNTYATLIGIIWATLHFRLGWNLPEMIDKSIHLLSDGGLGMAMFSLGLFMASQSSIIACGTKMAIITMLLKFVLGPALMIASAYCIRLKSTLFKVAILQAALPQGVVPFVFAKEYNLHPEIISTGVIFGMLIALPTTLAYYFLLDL
# Method: (§1) SSM, using a SURFE2R N1 from Nanion Technologies, was conducted as described. In brief, soy polar lipid mix (38% phosphatidyl choline, 30% phosphatidyl ethanolamine, 18% phosphatidyl inositol, 7% phosphatidic acid and 7% other soy lipids) and 1-palmitoyl-2-oleoyl-sn-glycero-3-phosphocholin were purchased from Avanti. Liposomes were prepared in Ringer solution without Ca^2+ (115 mM NaCl, 2.5 mM KCl, 1 mM NaHCO3, 10 mM HEPES pH7.4, 1 mM MgCl2) and homogenized using a Lipsofast (Avestin) with a […]. Triton X-100 was added to the liposomes to a final concentration of 1% (v/v). Protein was added to liposomes to a calculated lipid-to-protein ratio (LPR) of 10 unless stated otherwise. The detergent was removed using 400 mg ml^−1 Bio Beads (BioRad) overnight at 4 °C in a rotary shaker. Proteoliposomes were frozen in liquid nitrogen and kept at −80 °C until use. Proteoliposomes were diluted 1:5 in Ringer solution without Ca^2+, sonicated five times and then applied to the sensors by centrifugation (30 min, 3,000 g, 4 °C). Non-activating buffer was Ringer solution without Ca^2+ as described unless specified otherwise, and activating buffer contained the substrate of interest. In most instances we used a single-solution exchange experiment. In this case proteoliposomes, immobilized on the supported membrane, are kept in non-activating buffer as specified. At the beginning of the experiment the non-activating buffer is replaced with fresh identical non-activating buffer, and after 1 s, activating buffer (same buffer containing substrate) is added. After another second, the buffer is replaced with non-activating buffer again. Current response is recorded throughout the entire 3 s. For competition or inhibition, the respective compound was present in non-activating and activating solutions. Each experiment was performed on at least two individual sensors. On each sensor each measurement consists of three technical replicates where the mean is calculated. KD values were determined as described previously. Briefly, the binding current induced by 100 µM NPA was recorded in the presence of different concentrations of the substrate under investigation ranging between 0 µM and 1,000 µM present in the activating solution and the non-activating solution (Extended Data Fig. 5b). […] The maximum peak current was then plotted as a function of the concentration of the substrate under investigation and plotted against the degree of inhibition and fitted with a one-site binding model using GraphPad Prism V10.4.1 The half maximal concentration corresponds to the KD of the substrate under investigation.
# (§2) The protocol for expression and purification of AtPIN8 protein (Uniprot: Q9LFP6) in lauryl maltose neopentyl glycol was described previously. All point mutants were generated using Q5 Site-Directed mutagenesis kit (New England Biolabs). The C-flat Holey Carbon grids (CF-1.2/1.3, Cu-300 mesh) were glow-discharged for 45 s at 15 mA in a GloQube Plus (Quorum). […] After 1 h of incubation on ice, the sample was centrifuged at 16,000 g for 15 min before blotting to remove precipitation. A drop of 4 µl of each sample was applied to the glow-discharged grids, blotted with a Vitrobot Mark IV (ThermoFisher Scientific) using the following settings (temperature 4 °C, 100% humidity, blot time of 4 s, blot force −1) and vitrified in liquid ethane.
# [2] = target: T2, PIN8 N223A (Arabidopsis thaliana, UniProt Q9LFP6, N223A); settings: N223A
# T2 construct: made in house
# T2 sequence (Q9LFP6 whole entry N223A): as the sequence (Q9LFP6 whole entry I51Y) above, with Y51I, N223A counted along it
# Method: as §1, §2
# [3] = target: T3, PIN8 S146A (Arabidopsis thaliana, UniProt Q9LFP6, S146A); settings: for Peak current: S146A, individual sensors
# T3 construct: made in house
# T3 sequence (Q9LFP6 whole entry S146A): as the sequence (Q9LFP6 whole entry I51Y) above, with Y51I, S146A counted along it
# Method: as §1, §2
# [4] = target: T4, PIN8 S266A (Arabidopsis thaliana, UniProt Q9LFP6, S266A); settings: PIN8 S266A, Michaelis–Menten fit
# T4 construct: made in house
# T4 sequence (Q9LFP6 whole entry S266A): as the sequence (Q9LFP6 whole entry I51Y) above, with Y51I, S266A counted along it
# Method: as §1, §2
# [5] = target: T5, PIN8 S55A (Arabidopsis thaliana, UniProt Q9LFP6, S55A); settings: for Peak current: S55A, individual sensors
# T5 construct: made in house
# T5 sequence (Q9LFP6 whole entry S55A): as the sequence (Q9LFP6 whole entry I51Y) above, with Y51I, S55A counted along it
# Method: as §1, §2
# [6] = target: T6, PIN8 S55A/S146A (Arabidopsis thaliana, UniProt Q9LFP6, S146A/S55A); settings: Michaelis–Menten fit
# T6 construct: made in house
# T6 sequence (Q9LFP6 whole entry S55A/S146A): as the sequence (Q9LFP6 whole entry I51Y) above, with Y51I, S55A, S146A counted along it
# Method: as §1, §2
# [7] = target: T7, PIN8 Y150A (Arabidopsis thaliana, UniProt Q9LFP6, Y150A); settings: for Peak current: Y150A, individual sensors
# T7 construct: made in house
# T7 sequence (Q9LFP6 whole entry Y150A): as the sequence (Q9LFP6 whole entry I51Y) above, with Y51I, Y150A counted along it
# Method: as §1, §2
# [8] = target: T8, PIN8 Y150F (Arabidopsis thaliana, UniProt Q9LFP6, Y150F); settings: PIN8 Y150F, Michaelis–Menten fit
# T8 construct: made in house
# T8 sequence (Q9LFP6 whole entry Y150F): as the sequence (Q9LFP6 whole entry I51Y) above, with Y51I, Y150F counted along it
# Method: as §1, §2
# [9] = target: T9, PIN8 N117A (Arabidopsis thaliana, UniProt Q9LFP6, N117A); test: SSM electrophysiology peak current, PIN8 N117A proteoliposomes; settings: for Relative Peak Current of WT (%): Substrate 4-CPA, replicates
# T9 construct: made in house
# T9 sequence (Q9LFP6 whole entry N117A): as the sequence (Q9LFP6 whole entry I51Y) above, with Y51I, N117A counted along it
# Method: as §1, §2
# [10] = target: T10, wild-type PIN8 proteoliposomes (Arabidopsis thaliana, UniProt Q9LFP6); test: SSM electrophysiology, peak width (FWHM) of current response at LPR10 and LPR50; settings: for Rel. FWHM (% of LPR10): replicates
# T10 construct: made in house
# T10 sequence (Q9LFP6 1-367): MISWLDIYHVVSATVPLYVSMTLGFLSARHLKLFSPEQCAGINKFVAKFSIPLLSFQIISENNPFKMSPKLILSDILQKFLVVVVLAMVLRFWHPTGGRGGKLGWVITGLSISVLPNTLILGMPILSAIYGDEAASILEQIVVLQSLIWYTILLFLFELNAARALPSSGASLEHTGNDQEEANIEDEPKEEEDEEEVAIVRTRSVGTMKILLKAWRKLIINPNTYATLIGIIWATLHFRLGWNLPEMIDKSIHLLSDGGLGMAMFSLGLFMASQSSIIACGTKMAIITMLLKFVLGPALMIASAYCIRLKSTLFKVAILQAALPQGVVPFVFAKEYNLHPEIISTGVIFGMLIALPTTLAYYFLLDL
# Method: as §1
# [11] = read-out: EC50 of peak current response
smiles,measurement,setting,value
"O=C(O)COc1ccc(Cl)cc1 [4-CPA, 4-chlorophenoxyacetic acid]",Imax,[1],3 ± 0.8 nA
same,EC50,[1]; [11],1040 ± 252 µM
same,fold-change difference to the respective EC50 of wildtype PIN8,[2],completely abolishes binding
same,Imax,"[3]; PIN8 S146A, Michaelis–Menten fit",8 ± 2 nA
same,Peak current,[3]; 5 µM substrate,0.16 nA and 0.306 nA and 0.183 nA and 0.211 nA
same,Peak current,[3]; 20 µM substrate,0.62 nA and 0.288 nA and 0.616 nA
same,Peak current,[3]; 50 µM substrate,1.139 nA and 1.066 nA and 1.161 nA and 1.319 nA
same,Peak current,[3]; 100 µM substrate,1.866 nA and 1.352 nA and 1.859 nA and 2.228 nA
same,Peak current,[3]; 500 µM substrate,4.245 nA and 2.76 nA and 4.229 nA and 5.107 nA
same,Peak current,[3]; 1000 µM substrate,5.47 nA and 3.518 nA and 5.371 nA and 6.513 nA
same,Peak current,[3]; 2000 µM substrate,6.809 nA and 4.912 nA and 6.602 nA and 8.134 nA
same,Imax,[4],7 ± 2 nA
same,EC50,[4]; [11],2100 ± 290 µM
same,Imax,"[5]; PIN8 S55A, Michaelis–Menten fit",11 ± 1 nA
same,EC50,"[5]; PIN8 S55A, Michaelis–Menten fit, read-out: EC50 of peak current response",328 ± 15 µM
same,Peak current,[5]; 5 µM substrate,0.2701 nA and 0.2897 nA and 0.3406 nA
same,Peak current,[5]; 20 µM substrate,0.9459 nA and 0.8941 nA and 1.017 nA
same,Peak current,[5]; 50 µM substrate,1.817 nA and 1.664 nA and 1.992 nA
same,Peak current,[5]; 100 µM substrate,2.935 nA and 2.612 nA and 3.1231 nA
same,Peak current,[5]; 500 µM substrate,6.5808 nA and 5.777 nA and 6.881 nA
same,Peak current,[5]; 1000 µM substrate,8.474 nA and 7.36 nA and 8.719 nA
same,Peak current,[5]; 2000 µM substrate,10.4298 nA and 8.998 nA and 10.8546 nA
same,Imax,[6],11 ± 0.9 nA
same,EC50,[6]; [11],81 ± 3 µM
same,Imax,"[7]; PIN8 Y150A, Michaelis–Menten fit",5 ± 0.4 nA
same,EC50,"[7]; PIN8 Y150A, Michaelis–Menten fit, read-out: EC50 of peak current response",2620 ± 263 µM
same,Peak current,[7]; 5 µM substrate,0.004001 nA and 0.000964 nA and 0.005187 nA and 0.01098 nA
same,Peak current,[7]; 20 µM substrate,0.001883 nA and 0.005268 nA and 0.002512 nA and 0.004292 nA
same,Peak current,[7]; 50 µM substrate,0.02123 nA and 0.03866 nA and 0.02734 nA and 0.07514 nA
same,Peak current,[7]; 100 µM substrate,0.1072 nA and 0.1421 nA and 0.1118 nA and 0.1489 nA
same,Peak current,[7]; 500 µM substrate,0.7863 nA and 0.8129 nA and 0.8214 nA and 0.8974 nA
same,Peak current,[7]; 1000 µM substrate,1.36 nA and 1.41 nA and 1.338 nA and 1.516 nA
same,Peak current,[7]; 2000 µM substrate,2.1396 nA and 2.167 nA and 2.059 nA and 2.335 nA
same,Imax,[8],5 ± 0.9 nA
same,EC50,[8]; [11],710 ± 228 µM
same,current response / function of PIN8 N117A,[9]; N117A mutation,abolishes the current response
same,Relative Peak Current of WT (%),[9]; 100µM,1.438% and 7.087% and 13.2919% and 50.142%
same,Relative Peak Current of WT (%),[9]; 2mM,17.5134% and 20.2019% and 18.4651% and 19.2453%
same,Rel. FWHM (% of LPR10),[10]; LPR10,1.033 % of LPR10 and 0.9836 % of LPR10 (2×)
same,peak width of SSM-based current response as a function of lipid-to-protein ratio (LPR),[10]; LPR10 versus LPR50,vary with lipid-to-protein ratio (LPR)
same,Rel. FWHM (% of LPR10),[10]; LPR50,1.475 % of LPR10 (2×) and 1.328 % of LPR10 and 1.377 % of LPR10
